Data published in patent US4271163A, “Novel 3,4-diaza-bicyclo[4.1.0]hept-2-en-5-ones, their preparation, and therapeutic agents containing these compounds” (BASF Aktiengesellschaft, priority 1978, dated 1981).
In brackets after ≈: the same amount, converted by molar mass. Like-named read-outs stand apart in the source and are kept apart here.

Legend:
human thrombocytes = assay: Inhibition of the collagen-induced aggregation of human thrombocytes in vitro; type: cell-based; details: for EC50: 10 min, read-out: Inhibition of collagen-induced thrombocyte aggregation in vitro, EC 50%; for Inhibition of aggregation, R.A. (relative activity): acetylsalicylic acid = 1.00
Procedure: 1. Inhibition of the collagen-induced aggregation of human thrombocytes in vitro.
(§1) Thrombocyte-rich plasma is obtained by centrifuging venous citrate blood (300 g, 10 minutes duration at 4° C.). The photometric measurement of the thrombocyte aggregation is carried out with addition of MgCl2 (final concentration 10 millimoles/l) and of collagen Stago (final concentration 0.02 mg/ml) in a Born Mk 3 aggregometer. The maximum extinction change/sec is used as a measure of the aggregation.
The aggregation-inhibiting activity of the substances is tested after an incubation time of 10 minutes.
The EC 50% is taken to be the concentration causing 50% inhibition of aggregation.
(§2) The effective doses or effective concentrations were calculated from the linear relationships between the logarithm of the dose or concentration and the logarithm of the effect, by means of regression analysis.
(§3) Acetylsalicylic acid was used as the reference substance for the inhibition of thrombocyte aggregation and dihydralazine for the anti-hypertensive effect.

rat thrombocytes = assay: Inhibition of the collagen-induced aggregation of rat thrombocytes ex vivo; type: in vivo, rat (male Sprague-Dawley); details: for ED (33%): Rattus norvegicus, read-out: Inhibition of thrombocyte aggregation, ED 33%; for Inhibition of thrombocyte aggregation, R.A. (relative activity): acetylsalicylic acid = 1.00; for Inhibition of thrombocyte aggregation after oral administration in vivo (in words): versus acetylsalicylic acid
Procedure: as §1
2. Inhibition of the collagen-induced aggregation of rat thrombocytes ex vivo.
The substances are administered orally to groups of 10-15 male Sprague-Dawley rat weighing 200-250 g. 1-4 hours after administration, blood is taken under ether narcosis and thrombocyte-rich plasma is obtained by centrifuging. The aggregation after addition of collagen is measured as indicated above. The ED 33% is determined as the dose which inhibits the collagen-induced thrombocyte aggregation by 33%.
as §2, §3

narcotized rats = assay: Anti-hypertensive effect on narcotized rats; type: in vivo, rat (male Sprague-Dawley); details: rats under urethane narcosis, intraperitoneal; for ED (20%): Rattus norvegicus, ip, dose which lowers the blood pressure by 20%, read-out: Reduction in blood pressure, ED 20%; for Reduction in blood pressure, R.A. (relative activity): dihydralazine = 1.00
Procedure: 3. Anti-hypertensive effect on narcotized rats.
To test the anti-hypertensive effect, the substances are administered intraperitoneally to groups of 3-5 male Sprague-Dawley rats weighing 240-280 g, under urethane narcosis ([…] given intraperitoneally).
The measurement of the blood pressure in the carotid artery is carried out by means of Statham transducers. The ED 20% is determined as the dose which lowers the mean carotid blood pressure by 20%.
as §2, §3

[1] = test system: spontaneously hypertonic rats; assay: Anti-hypertensive effect on spontaneously hypertonic rats; type: in vivo, rat (male spontaneously hypertonic Okamoto); details: for ED (20%): Rattus norvegicus, 2 h, dose which lowers the blood pressure by 20% compared to the control group; for ED (20%) / Anti-hypertensive effect, R.A.: oral administration; for Anti-hypertensive effect, R.A.: dihydralazine = 1.00
Procedure: 4. Anti-hypertensive effect on spontaneously hypertonic rats.
The substances are administered orally to groups of 4-8 male spontaneously hypertonic Okamoto rats weighing 270-340 g. Before, and 2 hours after, the administration, the systolic blood pressure is measured non-surgically by means of piezo-electric crystal sensors.
The ED 20% is determined as the dose which lowers the systolic pressure by 20%, taking into account the values found with untreated control animals.
as §2, §3

[2] = human thrombocytes in vitro, concentration which inhibits the collagen-induced aggregation by 50%, 10 minutes incubation
[3] = rats, oral administration, dose which inhibits the collagen-induced aggregation by 33%

| SMILES | EC50 (human thrombocytes; [2]) [µg/mL] | EC50 (human thrombocytes; Homo sapiens) [µg/mL] | ED (33%) (rat thrombocytes; po) [mg/kg] | Inhibition of thrombocyte aggregation, R.A. (relative activity) (rat thrombocytes; rats, oral administration) | ED (20%) (narcotized rats) [mg/kg] | Reduction in blood pressure, R.A. (relative activity) (narcotized rats) | ED (20%) [1] [mg/kg] | Anti-hypertensive effect, R.A. [1] | Inhibition of aggregation, R.A. (relative activity) (human thrombocytes; human thrombocytes in vitro) | ED (33%) (rat thrombocytes; [3]) [mg/kg] | Inhibition of thrombocyte aggregation after oral administration in vivo (in words) (rat thrombocytes; rats) | Anti-hypertensive effect in spontaneously hypertonic rats after oral administration (in words) [1] |
| --- | --- | --- | --- | --- | --- | --- | --- | --- | --- | --- | --- | --- |
| CC(=O)Oc1ccccc1C(=O)O [Acetylsalicylic acid, reference compound] | – | 494 (≈ 2740 µM) | 134 | 1.00 | – | – | – | – | – | – | – | – |
| NNc1nnc(NN)c2ccccc12 [Dihydralazine, reference compound] | – | – | – | – | 0.337 | 1.0 | 6.85 | 1.00 | – | – | – | – |
| O=CNc1ccc(C2=NNC(=O)C3CC23)cc1 (centres unmarked) [Example 10, 2-(p-formylaminophenyl)-3,4-diaza-bicyclo[4.1.0]hept-2-en-5-one] | 6.81 (≈ 29.7 µM) | – | – | – | 0.253 | 1.33 | – | – | 73 | – | – | – |
| CCCC(=O)Nc1ccc(C2=NNC(=O)C3CC23)cc1 (centres unmarked) [Example 15, 2-(p-butyrylaminophenyl)-3,4-diaza-bicyclo[4.1.0]hept-2-en-5-one] | 1.87 (≈ 6.89 µM) | – | – | – | 1.88 | 0.18 | – | – | 264 | – | – | – |
| O=C(CCCCl)Nc1ccc(C2=NNC(=O)C3CC23)cc1 (centres unmarked) [Example 21, 2-[p-(4-chlorobutyrylamino)-phenyl]-3,4-diaza-bicyclo[4.1.0]hept-2-en-5-one] | 2.27 (≈ 7.42 µM) | – | – | – | 6.81 | 0.05 | – | – | 218 | – | – | – |
| CC(C)(CBr)C(=O)Nc1ccc(C2=NNC(=O)C3CC23)cc1 (centres unmarked) [Example 22, 2-(p-bromopivaloylaminophenyl)-3,4-diaza-bicyclo[4.1.0]hept-2-en-5-one] | 3.47 (≈ 9.53 µM) | – | – | – | 2.96 | 0.11 | – | – | 142 | – | – | – |
| CC1CC1C(=O)Nc1ccc(C2=NNC(=O)C3CC23)cc1 (centres unmarked) [Example 25, 2-[p-(2-methylcyclopropylcarbonylamino)-phenyl]-3,4-diaza-bicyclo[4.1.0]hept-2-en-5-one] | 1.8 (≈ 6.35 µM) | – | – | – | 0.649 | 0.52 | – | – | 274 | – | – | – |
| CC1(C(=O)Nc2ccc(C3=NNC(=O)C4CC34)cc2)CC1(Cl)Cl (centres unmarked) [Example 26, 2-[p-(2,2-dichloro-1-methylcyclopropylcarbonylamino)-phenyl]-3,4-diaza-bicyclo[4.1.0]hept-2-en-5-one] | 1.91 (≈ 5.42 µM) | – | – | – | 0.786 | 0.43 | – | – | 259 | – | – | – |
| O=C(Nc1ccc(C2=NNC(=O)C3CC23)cc1)C1CCC1 (centres unmarked) [Example 27, 2-(p-cyclobutylcarbonylaminophenyl)-3,4-diaza-bicyclo[4.1.0]hept-2-en-5-one] | 1.42 (≈ 5.01 µM) | – | – | – | 0.398 | 0.85 | – | – | 348 | – | – | – |
| O=C(Nc1ccc(C2=NNC(=O)C3CC23)cc1)C1CCCCC1 (centres unmarked) [Example 28, 2-(p-cyclohexylcarbonylaminophenyl)-3,4-diaza-bicyclo[4.1.0]-hept-2-en-5-one] | 5.09 (≈ 16.3 µM) | – | – | – | 0.415 | 0.81 | – | – | 97 | – | – | – |
| O=C(Nc1ccc(C2=NNC(=O)C3CC23)cc1)c1ccccc1 (centres unmarked) [Example 30, 2-(p-benzoylaminophenyl)-3,4-diaza-bicyclo[4.1.0]hept-2-en-5-one] | 6.01 (≈ 19.7 µM) | – | – | – | > 10 | < 0.03 | – | – | 82 | – | – | – |

The next lines start with results.

| EC50 (human thrombocytes; [2]) [µg/mL] | SMILES | EC50 (human thrombocytes; Homo sapiens) [µg/mL] | ED (33%) (rat thrombocytes; po) [mg/kg] | Inhibition of thrombocyte aggregation, R.A. (relative activity) (rat thrombocytes; rats, oral administration) | ED (20%) (narcotized rats) [mg/kg] | Reduction in blood pressure, R.A. (relative activity) (narcotized rats) | ED (20%) [1] [mg/kg] | Anti-hypertensive effect, R.A. [1] | Inhibition of aggregation, R.A. (relative activity) (human thrombocytes; human thrombocytes in vitro) | ED (33%) (rat thrombocytes; [3]) [mg/kg] | Inhibition of thrombocyte aggregation after oral administration in vivo (in words) (rat thrombocytes; rats) | Anti-hypertensive effect in spontaneously hypertonic rats after oral administration (in words) [1] |
| --- | --- | --- | --- | --- | --- | --- | --- | --- | --- | --- | --- | --- |
| 0.14 (≈ 0.576 µM) | CC(=O)Nc1ccc(C2=NNC(=O)C3CC23)cc1 (centres unmarked) [Example 7, 2-(p-acetylaminophenyl)-3,4-diaza-bicyclo[4.1.0]hept-2-en-5-one] | – | – | 4.36 | 0.193 | 1.75 | 8.65 | 0.79 | 3530 | 30.7 | far surpasses the effect of acetylsalicylic acid | demonstrable |
| 0.28 (≈ 1.09 µM) | CCC(=O)Nc1ccc(C2=NNC(=O)C3CC23)cc1 (centres unmarked) [Example 11, 2-(p-propionylaminophenyl)-3,4-diaza-bicyclo[4.1.0]hept-2-en-5-one] | – | – | 90.54 | 0.134 | 2.52 | 10 | 0.69 | 1760 | 1.48 | far surpasses the effect of acetylsalicylic acid | demonstrable |
| 0.95 (≈ 3.42 µM) | O=C(CCl)Nc1ccc(C2=NNC(=O)C3CC23)cc1 (centres unmarked) [Example 12, 2-(p-chloroacetylaminophenyl)-3,4-diaza-bicyclo[4.1.0]hept-2-en-5-one] | – | – | – | 0.299 | 1.13 | – | – | 518 | – | – | – |
| 0.38 (≈ 1.49 µM) | C=CC(=O)Nc1ccc(C2=NNC(=O)C3CC23)cc1 (centres unmarked) [Example 14, 2-(p-acryloylaminophenyl)-3,4-diaza-bicyclo[4.1.0]hept-2-en-5-one] | – | – | – | 0.298 | 1.13 | – | – | 1310 | – | – | – |
| 4.88 (≈ 18 µM) | CC(C)C(=O)Nc1ccc(C2=NNC(=O)C3CC23)cc1 (centres unmarked) [Example 16, 2-(p-isobutyrylaminophenyl)-3,4-diaza-bicyclo[4.1.0]hept-2-en-5-one] | – | – | – | 0.402 | 0.84 | – | – | 101 | – | – | – |
| 3.99 (≈ 14 µM) | CCC(C)C(=O)Nc1ccc(C2=NNC(=O)C3CC23)cc1 (centres unmarked) [Example 18, 2-[p-(2-methylbutyrylamino)-phenyl]-3,4-diaza-bicyclo[4.1.0]hept-2-en-5-one] | – | – | – | 0.9 | 0.37 | – | – | 124 | – | – | – |
| 3.52 (≈ 12.1 µM) | O=C(CCCl)Nc1ccc(C2=NNC(=O)C3CC23)cc1 (centres unmarked) [Example 19, 2-[p-(3-chloropropionylamino)-phenyl]-3,4-diaza-bicyclo[4.1.0]hept-2-en-5-one] | – | – | – | 0.688 | 0.49 | – | – | 140 | – | – | – |
| 2.99 (≈ 9.58 µM) | O=C(Nc1ccc(C2=NNC(=O)C3CC23)cc1)C(Cl)Cl (centres unmarked) [Example 23, 2-(p-dichloroacetylaminophenyl)-3,4-diaza-bicyclo[4.1.0]hept-2-en-5-one] | – | – | – | 1.5 | 0.23 | – | – | 165 | – | – | – |
| 3.2 (≈ 9.81 µM) | CC(Cl)(Cl)C(=O)Nc1ccc(C2=NNC(=O)C3CC23)cc1 (centres unmarked) [Example 24, 2-[p-(2,2-dichloropropionylamino)-phenyl]-3,4-diaza-bicyclo[4.1.0]hept-2-en-5-one] | – | – | – | 10 | 0.03 | – | – | 154 | – | – | – |
| 2.12 (≈ 7.87 µM) | C/C=C/C(=O)Nc1ccc(C2=NNC(=O)C3CC23)cc1 (centres unmarked) [Example 29, 2-(p-crotonoylaminophenyl)-3,4-diaza-bicyclo[4.1.0]-hept-2-en-5-one] | – | – | – | 1.71 | 0.20 | – | – | 233 | – | – | – |
